Laboratory results as given in US20230398130A1, “METHODS AND COMPOSITIONS FOR DIFFERENTIATING STEM CELLS” (Massachusetts Institute of Technology, priority 2020, published 2023).
“Also recorded” adds a separate entry of the source. Like-named read-outs stand apart in the source and are kept apart here.

How the values were obtained:
ISC-enriched organoids [1] = assay: Secondary (validation) screen, 384-well 2.5-D, ENR+CD 6 days, n=8 wells, vs ENR+CD+DMSO control: ATP (CTG); format: cell-based, murine
Paneth cells = assay: Flow cytometry of 3D-cultured intestinal organoids (ENR+CD, 6 days): Paneth cell fraction (lysozyme-positive, CD24-mid); format: cell-based, murine; details: ENR+CD 6 days, 3-D culture
Experimental: Flow cytometry analysis (3D culture). ISC-enriched organoids cultured in 3D Matrigel with ENRCV media were passaged to 24-well plate in 3D Matrigel with ENRCV. At day zero, media were replaced to ENRCD with or without indicated compounds, and media were replaced every other day. […] Flow cytometry was performed using an LSR Fortessa (BD; Koch Institute Flow Cytometry Core at MIT). The data were analyzed using FlowJo v10 software.
Single live cells were selected by several gating strategies and Paneth cells were identified as lysozyme-high, CD24-mid, side scatter-high (SSC-high) (FIG. 27E). […] To evaluate whether the culture media supplements C and D may alter the effects of the 6 hits, Applicants also performed lysozyme assay in the canonical ENR culture condition in 3-D (because Paneth cells exist in an immature state within ENR, Applicants were unable to robustly quantify Paneth cell number via flow cytometry).
(§1) Flow cytometry. ISC-enriched organoids in 3D Matrigel culture were passaged to a 48-well plate and induced differentiation for 6 days by ENR+CD media containing DMSO or each drug indicated in the figures. DMSO- or drug-containing media were changed every other day. […] After vigorous pipetting and incubation at 37° C. for 15 min, the cell solution was diluted twice with basal media and centrifuged at 300 rcf for 3 min. […] The cell solution was centrifuged again at 300 rcf for 3 min at 4° C. to pellet the cells. […] Cells were centrifuged again for 3 min at 300 rcf and blocked with staining buffer (FACS buffer containing 0.5% Tween20 (Sigma, P2287)) for 15 min at RT in the dark. […] Flow cytometry was performed using an LSR Fortessa (BD; Koch Institute Flow Cytometry Core at MIT). Flow cytometry data were analyzed using FlowJo X v10.6.1 software.
Live Paneth cells were identified as LYZ-high, CD24-mid, side scatter-high (SSC-high) (FIG. 50F).
as §1, with “organoids in 3-D Matrigel culture” for “organoids in 3D Matrigel culture”, “to a 24- or 48-well plate” for “to a 48-well plate”

ISC-enriched organoids [2] = assay: Secondary (validation) screen, 384-well 2.5-D, ENR+CD 6 days, n=8 wells, vs ENR+CD+DMSO control: carbachol-induced lysozyme secretion (LYZ.S); format: cell-based, murine
ISC-enriched organoids [3] = assay: Primary screen, 384-well 2.5-D organoid differentiation (ENR+CD, 6 days, Target Selective Inhibitor Library, vs whole-plate median): ATP (CellTiter-Glo 3D, CTG); details: standard z score of FC
ISC-enriched organoids [4] = assay: Secondary (validation) screen, 384-well 2.5-D, ENR+CD 6 days, n=8 wells, vs ENR+CD+DMSO control: basal lysozyme secretion (LYZ.NS); format: cell-based, murine
ISC-enriched organoids [5] = assay: Lysozyme secretion assay, 3-D organoids in ENR+CD, normalized to ATP; format: cell-based, murine; details: for Paneth cell differentiation (functional LYZ secretion), in combination with KPT-330: 6-day ENR+CD differentiation with 160 nM KPT-330; for Paneth cell differentiation (functional LYZ secretion), compound alone: 6-day ENR+CD differentiation, 10 μM SR11302, 20 nM Cobimetinib, others over a dose range
Experimental: Lysozyme assay (3D culture). ISC-enriched organoids cultured in 3D Matrigel with ENRCV media were passaged to 48-well plate in 3D Matrigel with ENRCV. At day zero, media were replaced to ENR or ENRCD with or without indicated compounds, and media were replaced every other day. At day six, cells were washed twice with basal media and treated with carbamylcholine chloride (Sigma, C4382) for 3 hours. Media were collected and lysozyme activity was measured by EnzChek Lysozyme Assay Kit (ThermoFisher, E22013).
(§2) Lysozyme secretion assay. ISC-enriched organoids in 3D Matrigel culture were passaged to a 48- or 96-well plate and cultured with ENR or ENR+CD media containing DMSO or each drug for 6 days. DMSO- or drug-containing media were changed every other day. On day 6, cells were washed with basal media twice and treated with basal media with or without 10 μM carbamoylcholine chloride for 3 h in a CO2 incubator at 37° C. A part of the conditioned media was collected and used for lysozyme assay (Thermo, E-22013) following the manufacturer's instruction. The fluorescence was measured using excitation/emission of 485/530 nm. CellTiter-Glo 3D Reagent (Promega, G9681) was added afterward, and the cell culture plate was incubated on an orbital shaker at RT for 30 min to induce cell lysis and to stabilize the luminescent signal. The solution was replaced to a 96-well white microplate, and luminescent signals were measured by a microplate reader (infinite M200, Tecan). The standard curve was prepared by diluting recombinant ATP (Promega, P1132). For both assays, a polynomial cubic curve was fitted to a set of standard data, and each sample value was calculated on the Microsoft Excel.
as §2, with “in 3-D” for “in 3D”, “μM carbachol” for “μM carbamoylcholine chloride”, “3 hours” for “3 h”, “C. Conditioned” for “C. A part of the conditioned”, “nm. CTG” for “nm. CellTiter-Glo”, “Reagent” for “Reagent (Promega, G9681)”

ISC-enriched organoids [6] = assay: Primary screen, 384-well 2.5-D organoid differentiation (ENR+CD, 6 days): basal lysozyme secretion (LYZ.NS); format: cell-based, murine; details: SSMD in LYZ.NS and LYZ.S assays
Description: High-throughput screening.

[7] = system: ISC-enriched organoid cultures; format: cell-based
Experimental: Using the ISC-enriched organoid cultures, Applicants sought to assess the role of vitamin D's multiple metabolites on ISC proliferation and differentiation in vitro. Treatment of ISC-enriched organoid cultures with multiple vitamin D metabolites at 50 nM drives a reduction in cell number after 4 days of exposure (FIG. 45A). This reduction is attributed to reduced ISC self-renewal and differentiation to terminal epithelial cell types. To confirm increased differentiation of ISC-enriched organoids, mRNA markers of epithelial cells were assessed via quantitative PCR (FIG. 45B). […] By enhancing ISC differentiation, Applicants hypothesized that it may be possible to enhance barrier repair or integrity in IBD. Such effect could act synergistically with other known effects of vitamin D, and provide enhanced therapeutic benefit.
After observing that calcitriol, the primary active vitamin D metabolite, drove the most profound differentiation effect on in vitro ISC cultures, Applicants sought to investigate whether or not this effect is dose-dependent. Again, Applicants used the ISC-enriched organoid culture, and exposed varying concentrations of calcitriol for 4-day treatment periods.
Given that WNT signaling is central to ISC self-renewal and maintenance, Applicants investigated the role of calcitriol on ISC proliferation and WNT signal activity.

[8] = calcitriol 1 nM to 100 nM, 4-day treatment

Cc1cn(-c2cc(NC(=O)c3ccc(C)c(Nc4nccc(-c5cccnc5)n4)c3)cc(C(F)(F)F)c2)cn1 [Nilotinib (AMN-107), Nilotinib]
Z.CTG (ISC-enriched organoids [1]; Dose 0.10 uM): 0.830
repSSMD.CTG (ISC-enriched organoids [1]; Dose 0.10 uM): 0.571
Z.CTG (ISC-enriched organoids [1]; Dose 0.20 uM): 1.098
repSSMD.CTG (ISC-enriched organoids [1]; Dose 0.20 uM): 0.777
Z.CTG (ISC-enriched organoids [1]; Dose 0.80 uM): 2.104
repSSMD.CTG (ISC-enriched organoids [1]; Dose 0.80 uM): 1.535
Z.CTG (ISC-enriched organoids [1]; dose 0.40 uM): 1.275
repSSMD.CTG (ISC-enriched organoids [1]; dose 0.40 uM): 0.902
mature Paneth cell population within organoids (Paneth cells; hit compound at most potent dose from 2.5-D screening, vs control): significantly decreased Paneth abundance
total cell number (Paneth cells; hit compound at most potent dose): significantly increasing total cell number
Z.LYZ.S (ISC-enriched organoids [2]; Dose 0.10 uM): 0.339
repSSMD.LYZ.S (ISC-enriched organoids [2]; Dose 0.10 uM): 0.652
Z.LYZ.S (ISC-enriched organoids [2]; Dose 0.20 uM): 0.897
repSSMD.LYZ.S (ISC-enriched organoids [2]; Dose 0.20 uM): 1.324
Z.LYZ.S (ISC-enriched organoids [2]; Dose 0.80 uM): 1.099
repSSMD.LYZ.S (ISC-enriched organoids [2]; Dose 0.80 uM): 0.953
Z.LYZ.S (ISC-enriched organoids [2]; dose 0.40 uM): −0.053
repSSMD.LYZ.S (ISC-enriched organoids [2]; dose 0.40 uM): −0.055
Z.CTG (ISC-enriched organoids [3]; Dose 0.08 uM): 0.769
Z.CTG (ISC-enriched organoids [3]; Dose 0.40 uM): 0.831
Z.CTG (ISC-enriched organoids [3]; Dose 2.00 uM): 0.577
Z.CTG (ISC-enriched organoids [3]; Dose 10.00 uM): −0.029
Z.LYZ.NS (ISC-enriched organoids [4]; Dose 0.10 uM): 0.734
repSSMD.LYZ.NS (ISC-enriched organoids [4]; Dose 0.10 uM): 1.309
Z.LYZ.NS (ISC-enriched organoids [4]; Dose 0.20 uM): 1.283
repSSMD.LYZ.NS (ISC-enriched organoids [4]; Dose 0.20 uM): 1.683
Z.LYZ.NS (ISC-enriched organoids [4]; Dose 0.80 uM): 1.317
repSSMD.LYZ.NS (ISC-enriched organoids [4]; Dose 0.80 uM): 1.063
Z.LYZ.NS (ISC-enriched organoids [4]; dose 0.40 uM): 0.805
repSSMD.LYZ.NS (ISC-enriched organoids [4]; dose 0.40 uM): 1.064

CC1=C(/C=C/C(=C/C=C/C(C)=C/C(=O)O)c2ccc(C)cc2)C(C)(C)CCC1 [SR11302]
Paneth cell differentiation (functional LYZ secretion), in combination with KPT-330 (ISC-enriched organoids [5]): significantly decreases functional LYZ secretion
Paneth cell differentiation (functional LYZ secretion), compound alone (ISC-enriched organoids [5]): also decreases functional LYZ secretion; also recorded: significantly decreases functional LYZ secretion

COc1cc2c(Nc3ccc(NC(=O)c4ccccc4)cc3)ncnc2cc1OCCCN1CCOCC1 [ZM447439, reference compound]
primary screen hit call (ISC-enriched organoids [6]): lower-effect size hit
Paneth cell differentiation (functional LYZ secretion), compound alone (ISC-enriched organoids [5]): did significantly increase Paneth cell differentiation

C=C1/C(=C\C=C2/CCC[C@]3(C)[C@@H]([C@H](C)CCCC(C)(C)O)CC[C@@H]23)C[C@@H](O)C[C@@H]1O [calcitriol, 1α,25-dihydroxyvitamin D3]
ISC differentiation (mRNA markers of epithelial cells) ([7]; 50 nM, 4 days, vs control culture): having the most profound effect
cell number [7, 8]: a decrease in cell number
markers of intestinal epithelial cells (mRNA), ISC differentiation [7, 8]: an increase in markers of intestinal epithelial cells in a dose-dependent manner
markers of intestinal epithelial cells (mRNA), ISC differentiation ([7]; calcitriol 1 nM to 100 nM, 4-day treatment, listed as Calcitriol): dose-dependent differentiation effect, primarily to goblet cells
cell cycle markers ([7]; calcitriol, 4 days): a weak connection to cell cycle inhibition
proliferation (Ki67) ([7]; calcitriol, 4 days, all doses): minimal change in proliferation at all doses
LGR5 expression ([7]; increasing calcitriol dosage, 4 days): a clear reduction in LGR5

O=C(c1ccc(F)c(F)c1Nc1ccc(I)cc1F)N1CC(O)([C@@H]2CCCCN2)C1 [cobimetinib]
Paneth cell differentiation (functional LYZ secretion), in combination with KPT-330 (ISC-enriched organoids [5]): differentiation was enhanced; also recorded: significantly enhance Paneth cell differentiation; also recorded: proved synergistic in combination with KPT-330
Paneth cell differentiation (functional LYZ secretion), compound alone (ISC-enriched organoids [5]): did not significantly alter Paneth cell differentiation

Cc1ccc(C(=O)Cn2c3c(sc2=N)CCCC3)cc1 [pifithrin-a]
Paneth cell differentiation (functional LYZ secretion), in combination with KPT-330 (ISC-enriched organoids [5]): neither P53 inhibitor altered Paneth cell differentiation; also recorded: did not alter Paneth cell differentiation
Paneth cell differentiation (functional LYZ secretion), compound alone (ISC-enriched organoids [5]): neither P53 inhibitor altered Paneth cell differentiation; also recorded: did not alter Paneth cell differentiation

c1ccc2c(CCNc3ccc(Nc4ccncc4)cc3)c[nH]c2c1 [serdemetan]
Paneth cell differentiation (functional LYZ secretion), in combination with KPT-330 (ISC-enriched organoids [5]): neither P53 inhibitor altered Paneth cell differentiation; also recorded: did not alter Paneth cell differentiation
Paneth cell differentiation (functional LYZ secretion), compound alone (ISC-enriched organoids [5]): neither P53 inhibitor altered Paneth cell differentiation; also recorded: did not alter Paneth cell differentiation
